Measured values reported in PMC11713942 (Therapeutic Advances in Infectious Disease, 2025).

What was measured:
[1] = multilevel linear mixed model
Description: In any complex structure, we can identify atomic units (in this case curves) and higher level unit (in this case patients). Treating patients as a random effect will correct standard errors and furnish an estimate of between-group variance. Introducing some covariate in a fixed part of the models helps to explain and so reduce unexplained between-group variance. Results are expressed as beta coefficient with their 95% confidence interval (95% CI) and presented with term-specific p values; the beta coefficient represents the mean variation of outcomes for unit change of quantitative predictors or between levels of categorical or ordinal predictors.
AUC0–24 determined on the fifth day of treatment, when the steady-state conditions were achieved, were calculated and compared between the two different groups of patients.

[2] = cited from earlier work
clinical = conditions: human, in vivo; for half-life: Daptomycin t1/2 (elimination half-life), IV, 0.693/kel, median (IQR)
Protocol: Tubes were centrifuged at 10,400 rpm for at least 10 min at room temperature; separated plasma was then dispensed into polypropylene-labelled tubes and stored at −80°C until the bioanalysis was carried out. […] QcH (80 µg/mL), QcM (40 µg/mL) and QcL (4 µg/mL), by serial dilution in plasma. […] Just before the analysis, patient plasma samples were thawed, and calibrators and quality controls were prepared fresh in the same matrix. Each sample was processed by protein precipitation: 50 µL of plasma was prepared in pre-labelled Eppendorf tubes®. […] In total, 200 µL of the supernatant was transferred to HPLC vials, and 5 µL was injected into the chromatographic column. The HPLC system used was a Thermo Scientific quaternary pump® (Accela pump; Thermo Fisher Scientific, San Francisco, CA, USA) interfaced with an autosampler (Accela autosampler). […] From 3.10 to 4.50 min, the column was again equilibrated to the initial conditions. […] Xcalibur 2.07 and Lcquan2.5.6 software from Thermo Scientific (San Jose, CA, USA) were utilized for the LC-MS/MS system control, data acquisition and data analysis. Calibration curves were generated using weighted (1/x^2) linear regression curves.

[3] = Protocol: The monocentric, prospective, cohort study was approved by the local ethics committee. […] All participants signed an informed consent form before the initiation of treatment and data/biological samples collection. […] Due to the COVID-19 pandemic, we could not completely fulfil the study design, and patients were treated with either 8–10 mg/kg (group A) or 11–12 mg/kg (group B), as per routine clinical treatment. […] Microbiological failure was defined by persistent or breakthrough infection during IE treatment.
The occurrence of CK elevation above the normal value (>170 mU/mL) and eosinophilic pneumonia was evaluated.

[4] = system: Staphylococcus spp. infective endocarditis; experiment: Microbiological and clinical response of Staphylococcus spp. infective endocarditis; format: in vivo, human; conditions: all patients, both dose groups
Protocol: The monocentric, prospective, cohort study was approved by the local ethics committee. […] All participants signed an informed consent form before the initiation of treatment and data/biological samples collection. […] Due to the COVID-19 pandemic, we could not completely fulfil the study design, and patients were treated with either 8–10 mg/kg (group A) or 11–12 mg/kg (group B), as per routine clinical treatment. In six patients, PK data relative to both doses are available, as per the initial protocol. […] Microbiological failure was defined by persistent or breakthrough infection during IE treatment.

## CCCCCCCCCC(=O)N[C@@H](Cc1c[nH]c2ccccc12)C(=O)N[C@H](CC(N)=O)C(=O)N[C@@H](CC(=O)O)C(=O)N[C@@H]1C(=O)NCC(=O)N[C@@H](CCCN)C(=O)N[C@@H](CC(=O)O)C(=O)N[C@H](C)C(=O)N[C@@H](CC(=O)O)C(=O)NCC(=O)N[C@H](CO)C(=O)N[C@@H]([C@H](C)CC(=O)O)C(=O)N[C@@H](CC(=O)c2ccccc2N)C(=O)O[C@@H]1C [Daptomycin, daptomycin]
[1]
  Effect of gender on AUC0–24: gender did not affect the results
[1]; 95% CI 64–483, p = 0.010
  Beta coefficient, association of AUC0–24 with dose group: 274
[2]
  Increase of systemic exposure in elderly individuals (>75 years) compared with younger (18–30 years): 58%
Staphylococcus spp.
  MIC: < 0.5 µg/mL
clinical
  Dose linearity of pharmacokinetics: linear daptomycin pharmacokinetics
clinical; iv, Daptomycin CL
  clearance: 8.17 mL/min
clinical; iv, group A 8–10 mg/kg daily, 15 patients
  half-life: 16.9 h
clinical; iv, group B 11–12 mg/kg daily, 14 patients
  half-life: 15.1 h
[3]; 8–12 mg/kg daily
  Eosinophilic pneumonia during treatment: none of the patients
[3]; in vivo
  CK increase during treatment: none of the patients
[4]
  Breakthrough infections while on treatment: without evidence of breakthrough infections
  Microbiologic response: All patients displayed a microbiologic response
  Survival at 30 days: All patients were alive
